Test results: ChEMBL document CHEMBL1145649, “Novel HCV NS5B polymerase inhibitors derived from 4-(1',1'-dioxo-1',4'-dihydro-1'lambda6-benzo[1',2',4']thiadiazin-3'-yl)-5-hydroxy-2H-pyridazin-3-ones: Part 4. Optimization of DMPK properties” (Bioorg Med Chem Lett, 2008)

Assays:
in vitro = settings: human, Caco-2
[1] = Fraction absorbed in cynomolgus monkey at 1 mg/kg, po; type: ADME, organism-based, Macaca fascicularis; parameters: dose 1 mg/kg, route oral; settings: in vivo, read-out: Fabs
[2] = Oral bioavailability in cynomolgus monkey at 1 mg/kg; type: ADME, organism-based, Macaca fascicularis; settings: in vivo
physchem = settings: buffer, pH 7.4
[3] = Tmax in cynomolgus monkey at 1 mg/kg, po; type: ADME, organism-based, Macaca fascicularis; parameters: dose 1 mg/kg, route oral; settings: in vivo
[4] = Volume of distribution at steady state in cynomolgus monkey at 1 mg/kg, iv; type: ADME, organism-based, Macaca fascicularis; parameters: dose 1 mg/kg, route intravenous; settings: in vivo, read-out: Vdss
Cynomolgus monkey [5] = test: AUC (0 to infinity) in cynomolgus monkey at 1 mg/kg, iv; type: ADME, organism-based, Macaca fascicularis, Plasma; parameters: time infinity, dose 1 mg/kg, route intravenous; settings: in vivo
[6] = Cmax in cynomolgus monkey at 1 mg/kg, po; type: ADME, organism-based, Macaca fascicularis; parameters: dose 1 mg/kg, route oral; settings: in vivo
Cynomolgus monkey [7] = test: AUC (0 to infinity) in cynomolgus monkey at 1 mg/kg, po; type: ADME, organism-based, Macaca fascicularis, Plasma; parameters: time infinity, dose 1 mg/kg, route oral; settings: in vivo

SMILES	Papp A→B at 10 µM (in vitro) [×10⁻⁶ cm/s]	Fa [1] [%]	bioavailability [2] [%]	solubility (physchem) [µM]	Tmax [3] [h]	Vd [4] [L/kg]	AUC (Cynomolgus monkey [5]) [ng·h/mL]	Cmax [6] [ng/mL]	AUC (Cynomolgus monkey [7]) [ng·h/mL]
CN(c1ccc2c(c1)S(=O)(=O)N=C(c1c(O)c(-c3cccs3)nn(CCC(C)(C)C)c1=O)N2)S(C)(=O)=O	0.01	5	3	> 100	–	–	–	–	–
CC(C)CCn1nc(CC2CC2)c(O)c(C2=NS(=O)(=O)c3cc(NS(C)(=O)=O)ccc3N2)c1=O	0.49	9	7	> 100	–	–	–	–	–
CC(C)CCn1nc(CC2CCCC2)c(O)c(C2=NS(=O)(=O)c3cc(NS(C)(=O)=O)ccc3N2)c1=O	–	18	15	–	1.3	0.15	2540	113	370
CC(C)(C)CCn1nc(C2=CCCC2)c(O)c(C2=NS(=O)(=O)c3cc(NS(C)(=O)=O)ccc3N2)c1=O	–	7	4	–	–	–	–	–	–
CC(C)(C)CCn1nc(CC2CCCC2)c(O)c(C2=Nc3ccc(NS(C)(=O)=O)cc3S(=O)(=O)N2)c1=O	–	18	10	> 100	6	0.57	851	13	89
CC(C)CCn1nc(C(C)(C)C)c(O)c(C2=NS(=O)(=O)c3cc(NS(C)(=O)=O)ccc3N2)c1=O	0.58	17	15	> 100	1.5	0.17	3980	294	611
CC(C)CCn1nc(CC(C)(C)C)c(O)c(C2=NS(=O)(=O)c3cc(NS(C)(=O)=O)ccc3N2)c1=O	0.29	8	6	> 100	–	–	–	–	–
CS(=O)(=O)Nc1ccc2c(c1)S(=O)(=O)N=C(c1c(O)c(C3=CCCC3)nn(CCC3CC3)c1=O)N2	0.59	6	4	> 100	–	–	–	–	–
CC(C)=Cc1nn(CCC(C)(C)C)c(=O)c(C2=NS(=O)(=O)c3cc(NS(C)(=O)=O)ccc3N2)c1O	1	2	2	> 100	–	–	–	–	–
CC(C)(C)CCn1nc(CC(C)(C)C)c(O)c(C2=NS(=O)(=O)c3cc(NS(C)(=O)=O)ccc3N2)c1=O	0.15	4	4	> 100	–	–	–	–	–
CC(C)(C)CCn1nc(C2CC2)c(O)c(C2=Nc3ccc(NS(C)(=O)=O)cc3S(=O)(=O)N2)c1=O	0.95	5	4	> 50	–	–	–	–	–
CC(C)CCn1nc(-c2cccs2)c(O)c(C2=NS(=O)(=O)c3cc(N(C)S(C)(=O)=O)ccc3N2)c1=O	–	33	–	> 100	6	0.57	605	11	72
CC(C)CCn1nc(-c2cccs2)c(O)c(C2=Nc3ccc(NS(C)(=O)=O)cc3S(=O)(=O)N2)c1=O	–	4	–	> 100	6.3	0.18	1330	3.8	30
Cc1ccc(-c2nn(Cc3ccccc3)c(=O)c(C3=Nc4ccccc4S(=O)(=O)N3)c2O)s1	–	36	–	> 80	2	0.21	10900	673	3650
CC(C)(C)Cc1nn(CCC2CC2)c(=O)c(C2=Nc3ccc(NS(C)(=O)=O)cc3S(=O)(=O)N2)c1O	0.7	7	6	> 100	–	–	–	–	–
